What was measured:
Format in all cases: in vivo
[1] = system: morningglory (Ipomea lacunosa or Ipomea hederacea); experiment: pre-emergence herbicidal activity, morningglory; conditions: Ipomoea, 1 kg/Ha, about fourteen days, read-out: pre-emergence herbicidal activity (% control) IPOSS
Description: (§1) This example sets forth the methods of herbicidal testing conducted on the specific compounds set forth below. Specifically, the compounds referenced below were tested for pre- and post-emergence herbicidal activity using a variety of crops and weeds. The test plants include, but are not limited to, soybean (Glycine max -- var. Winchester), field corn (Zea mays var. Pioneer 3732), wheat (Triticum aestivum var. Lew), morningglory (Ipomea lacunosa or Ipomea hederacea), velvetleaf (Abutilon theophrasti), green foxtail (Setaria viridis), Johnsongrass (Sorghum halepense), blackgrass (Aloepecurus myosuroides), common chickweed (Stellaria media), and common cocklebur (Xanthium strumarium L.).
(§2) In the post-emergence test, seeds of the plant species named above were planted in flats containing the appropriate soil mixture where they were maintained to allow the seeds to germinate. When the plants in these flats reached the proper stage of growth, flats for the pre-emergence tests were planted in a like manner. The flats containing the post-emergence and pre-emergence test plant species were then sprayed with an appropriately concentrated water/acetone solution of test compound. Once treated the flats were maintained, along with untreated controls, for about fourteen days. All treated plants were then examined for phytotoxicity, which was expressed as percent control where 0 is no effect and 100 is complete control. Effective rates of application for the compounds of the present invention range from 0.001 to 3 kg/ha, more likely from […] to 1 Kg/ha.
(§3) Herbicidal activity data at selected application rates are in Tables 4 and 5. The test compounds are identified by numbers correspond to those in Table 1.
(§4) Rate of application of test compound is 1 kg/Ha
(§5) SOY is soybean, WHT is wheat, CRN is corn, ABUTH is velvetleaf, IPOSS is
(§6) morningglory, STEME is chickweed, XANPE is cocklebur, ALOMY is blackgrass, […]

[2] = system: morningglory (Ipomea lacunosa or Ipomea hederacea); experiment: post-emergence herbicidal activity, morningglory; conditions: Ipomoea, 1 Kg/Ha, about fourteen days, read-out: post-emergence herbicidal activity (% control) IPOSS
Description: as §1, §2, §3, §5
(§7) morningglory, STEME is chickweed, XANPE is cocklebur, ALOMY is blackgrass,
(§8) Rate of application of test compound is 1 Kg/Ha. The definitions as shown under Table 4 apply to Table 5.

[3] = system: soybean (Glycine max -- var. Winchester); experiment: pre-emergence herbicidal activity, soybean; conditions: 1 kg/Ha, about fourteen days, read-out: pre-emergence herbicidal activity (% control) SOY
Description: as §1, §2, §3, §4, §5, §6

[4] = system: blackgrass (Aloepecurus myosuroides); experiment: pre-emergence herbicidal activity, blackgrass; conditions: Alopecurus myosuroides, 1 kg/Ha, about fourteen days, read-out: pre-emergence herbicidal activity (% control) ALOMY
Description: as §1, §2, §3, §4, §5, §6

[5] = system: common chickweed (Stellaria media); experiment: pre-emergence herbicidal activity, chickweed; conditions: 1 kg/Ha, about fourteen days, read-out: pre-emergence herbicidal activity (% control) STEME
Description: as §1, §2, §3, §4, §5, §6

[6] = system: Johnsongrass (Sorghum halepense); experiment: post-emergence herbicidal activity, johnsongrass; conditions: 1 Kg/Ha, about fourteen days, read-out: post-emergence herbicidal activity (% control) SORHA
Description: as §1, §2, §3, §5, §7, §8

[7] = system: green foxtail (Setaria viridis); experiment: post-emergence herbicidal activity, green foxtail; conditions: 1 Kg/Ha, about fourteen days, read-out: post-emergence herbicidal activity (% control) SETVI
Description: as §1, §2, §3, §5, §7, §8

[8] = system: green foxtail (Setaria viridis); experiment: pre-emergence herbicidal activity, green foxtail; conditions: 1 kg/Ha, about fourteen days, read-out: pre-emergence herbicidal activity (% control) SETVI
Description: as §1, §2, §3, §4, §5, §6

[9] = system: soybean (Glycine max -- var. Winchester); experiment: post-emergence herbicidal activity, soybean; conditions: 1 Kg/Ha, about fourteen days, read-out: post-emergence herbicidal activity (% control) SOY
Description: as §1, §2, §3, §5, §7, §8

[10] = system: Johnsongrass (Sorghum halepense); experiment: pre-emergence herbicidal activity, johnsongrass; conditions: 1 kg/Ha, about fourteen days, read-out: pre-emergence herbicidal activity (% control) SORHA
Description: as §1, §2, §3, §4, §5, §6

[11] = system: wheat (Triticum aestivum var. Lew); experiment: post-emergence herbicidal activity, wheat; conditions: 1 Kg/Ha, about fourteen days, read-out: post-emergence herbicidal activity (% control) WHT
Description: as §1, §2, §3, §5, §7, §8

[12] = system: field corn (Zea mays var. Pioneer 3732); experiment: pre-emergence herbicidal activity, corn; conditions: 1 kg/Ha, about fourteen days, read-out: pre-emergence herbicidal activity (% control) CRN
Description: as §1, §2, §3, §4, §5, §6

[13] = system: common cocklebur (Xanthium strumarium L.); experiment: post-emergence herbicidal activity, cocklebur; conditions: 1 Kg/Ha, about fourteen days, read-out: post-emergence herbicidal activity (% control) XANPE
Description: as §1, §2, §3, §5, §7, §8

[14] = system: common cocklebur (Xanthium strumarium L.); experiment: pre-emergence herbicidal activity, cocklebur; conditions: 1 kg/Ha, about fourteen days, read-out: pre-emergence herbicidal activity (% control) XANPE
Description: as §1, §2, §3, §4, §5, §6

[15] = system: velvetleaf (Abutilon theophrasti); experiment: post-emergence herbicidal activity, velvetleaf; conditions: 1 Kg/Ha, about fourteen days, read-out: post-emergence herbicidal activity (% control) ABUTH
Description: as §1, §2, §3, §5, §7, §8

[16] = system: field corn (Zea mays var. Pioneer 3732); experiment: post-emergence herbicidal activity, corn; conditions: 1 Kg/Ha, about fourteen days, read-out: post-emergence herbicidal activity (% control) CRN
Description: as §1, §2, §3, §5, §7, §8

[17] = system: velvetleaf (Abutilon theophrasti); experiment: pre-emergence herbicidal activity, velvetleaf; conditions: 1 kg/Ha, about fourteen days, read-out: pre-emergence herbicidal activity (% control) ABUTH
Description: as §1, §2, §3, §4, §5, §6

[18] = system: wheat (Triticum aestivum var. Lew); experiment: pre-emergence herbicidal activity, wheat; conditions: 1 kg/Ha, about fourteen days, read-out: pre-emergence herbicidal activity (% control) WHT
Description: as §1, §2, §3, §4, §5, §6

SMILES	activity at 1000 g/ha [1]	activity at 1000 g/ha [2]	activity at 1000 g/ha [3]	activity at 1000 g/ha [4]	activity at 1000 g/ha [5]	activity at 1000 g/ha [6]	activity at 1000 g/ha [7]	activity at 1000 g/ha [8]	activity at 1000 g/ha [9]	activity at 1000 g/ha [10]	activity at 1000 g/ha [11]	activity at 1000 g/ha [12]	activity at 1000 g/ha [13]	activity at 1000 g/ha [14]	activity at 1000 g/ha [15]	activity at 1000 g/ha [16]	activity at 1000 g/ha [17]	activity at 1000 g/ha [18]
Cn1c(C(F)(F)F)cc(=O)n(-c2ccc(Cl)c3c2CN(Cc2ccccc2)C3=O)c1=O [Compound 10]	80%	40%	80%	80%	100%	40%	60%	100%	65%	100%	40%	90%	50%	80%	100%	60%	100%	70%
C#CCN1Cc2c(-n3c(=O)cc(C(F)(F)F)n(C)c3=O)ccc(Cl)c2C1=O [Compound 8]	100%	100%	100%	100%	100%	100%	100%	100%	100%	100%	100%	100%	100%	100%	100%	100%	100%	100%
CCCCN1Cc2c(-n3c(=O)cc(C(F)(F)F)n(C)c3=O)ccc(Cl)c2C1=O [Compound 11]	100%	95%	100%	100%	100%	90%	100%	100%	95%	100%	100%	100%	100%	100%	100%	80%	100%	100%
CN1Cc2c(-n3c(=O)cc(C(F)(F)F)n(C)c3=O)ccc(Cl)c2C1=O [Compound 9]	100%	90%	100%	100%	100%	50%	70%	100%	100%	100%	50%	100%	70%	100%	100%	50%	100%	100%

— patent US6277847A, “Herbicidal isoindolinonyl-and 3,4-dihydroisoquinolonyl-substituted heterocycles” (FMC Corporation, priority 2000, dated 2001)
